Source: patent US9833497B2, “Human originated EGF domain proteins and use of the same” (CHENGDU SOURCEBIO LIMITED-LIABILITY COMPANY, priority 2013, dated 2017)

Tests used:
Format in all cases: cell-based
E. coli DH5α = experiment: Antibacterial activity: MIC and growth curve against E. coli DH5α in 96-well plate; details: minimal inhibitory concentration against E. coli DH5α; 96-well plate, 5×10^5 CFU/mL, 37° C., judged after 8 h
How it was run: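 Log-phase bacteria (OD600 ~0.5) resuspended in LB at 5×10^5 CFU/mL, exposed to recombinant protein at 50, 25, 12.5 μg/mL final in triplicate, 37 °C shaking at 175 rpm. OD600 read every 30 min; MIC is lowest concentration showing no growth.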

E. coli BL21 = experiment: MIC against Gram-negative bacteria: E. coli BL21; details: 96-well plate, 5×10^5 CFU/mL, 37° C., 10 h
How it was run: (§1)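 Growth inhibition by human EGF domain proteins was scored in LB liquid culture seeded at 5×10^5 CFU/mL. Protein was applied as a two-fold dilution series in triplicate, with shaking incubation at 37° C; MIC is the lowest concentration giving no growth.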

Pseudomonas aeruginosa = experiment: MIC against Gram-negative bacteria: Pseudomonas aeruginosa; details: 96-well plate, 5×10^5 CFU/mL, 37° C., 10 h
How it was run: as §1

Klebsiella pneumonia = experiment: MIC against Gram-negative bacteria: Klebsiella pneumonia; details: 96-well plate, 5×10^5 CFU/mL, 37° C., 10 h
How it was run: as §1

Enterobacter cloacae = experiment: MIC against Gram-negative bacteria: Enterobacter cloacae; details: 96-well plate, 5×10^5 CFU/mL, 37° C., 10 h
How it was run: as §1

Aeromonas hydrophila = experiment: MIC against Gram-negative bacteria: Aeromonas hydrophila; details: 96-well plate, 5×10^5 CFU/mL, 37° C., 10 h
How it was run: as §1

Citrobacter diversus = experiment: MIC against Gram-negative bacteria: Citrobacter diversus; details: 96-well plate, 5×10^5 CFU/mL, 37° C., 10 h
How it was run: as §1

Moraxella catarrhalis = experiment: MIC against Gram-negative bacteria: Moraxella catarrhalis; details: 96-well plate, 5×10^5 CFU/mL, 37° C., 10 h
How it was run: as §1

Proteus mirabilis = experiment: MIC against Gram-negative bacteria: Proteus mirabilis; details: 96-well plate, 5×10^5 CFU/mL, 37° C., 10 h
How it was run: as §1

Proteus vulgaris = experiment: MIC against Gram-negative bacteria: Proteus vulgaris; details: 96-well plate, 5×10^5 CFU/mL, 37° C., 10 h
How it was run: as §1

Serratia marcescens = experiment: MIC against Gram-negative bacteria: Serratia marcescens; details: 96-well plate, 5×10^5 CFU/mL, 37° C., 10 h
How it was run: as §1

Row | Substance | MIC (E. coli DH5α) [µg/mL] | MIC against E. coli BL21 (E. coli BL21) [µg/mL] | MIC against P. aeruginosa (Pseudomonas aeruginosa) [µg/mL] | MIC against K. pneumonia (Klebsiella pneumonia) [µg/mL] | MIC against E. cloacae (Enterobacter cloacae) [µg/mL] | MIC against A. hydrophila (Aeromonas hydrophila) [µg/mL] | MIC against C. diversus (Citrobacter diversus) [µg/mL] | MIC against M. catarrhalis (Moraxella catarrhalis) [µg/mL] | MIC against P. mirabilis (Proteus mirabilis) [µg/mL] | MIC against P. vulgaris (Proteus vulgaris) [µg/mL] | MIC against S. marcescens (Serratia marcescens) [µg/mL]
1 | PRT455 (DVNECSQENGGCLQICHNKPGSFHCSCHSGFELSSDGRTCQ; listed as Homo sapiens) | 50 | 12.5 | 50 | 12.5 | 50 | 12.5 | 50 | 12.5 | 50 | 100 | 50
2 | PRT456 (DIDECADSEACGEARCKNLPGSYSCLCDEGFAYSSQEKACR; listed as Homo sapiens) | 25 | 12.5 | 50 | 12.5 | 12.5 | 12.5 | 50 | 12.5 | 50 | 12.5 | 25
3 | PRT457 (DVDECLQGRCEQVCVNSPGSYTCHCDGRGGLKLSQDMDTCE; listed as Homo sapiens) | 50 | 25 | 12.5 | 50 | 25 | 12.5 | 25 | 50 | 12.5 | 50 | 12.5
4 | PRT458 (ECSRLCRNGYCTPTGKCCCSPGWEGDFC; listed as Homo sapiens) | 50 | 12.5 | 12.5 | 12.5 | 12.5 | 25 | 12.5 | 25 | 12.5 | 25 | 12.5
5 | PRT459 (RTAKCEPACRHGGVCVRPNKCLCKKGYLGPQCE; listed as Homo sapiens) | 25 | 12.5 | 25 | 50 | 25 | 12.5 | 25 | 50 | 25 | 12.5 | 25
6 | PRT460 (DRDECSGGPSPCSHACLNAPGRFSCTCPTGFALAWDDRNCR; listed as Homo sapiens) | 50 | 25 | 12.5 | 25 | 50 | 12.5 | 50 | 25 | 12.5 | 50 | 12.5
7 | PRT461 (DVDECAWDAHLCREGQRCVNLLGSYRCLPDCGPGFRVADGAGCE; listed as Homo sapiens) | 50 | 12.5 | 50 | 12.5 | 50 | 12.5 | 50 | 25 | 12.5 | 25 | 12.5
8 | PRT462 (DVDECLEGLDDCHYNQLCENTPGGHRCSCPRGYRMQGPS; listed as Homo sapiens) | 12.5 | 12.5 | 100 | 12.5 | 12.5 | 12.5 | 12.5 | 50 | 25 | 12.5 | 25
9 | PRT463 (DVNECLQLPKACAYQCHNLQGSYRCLCPPGQTLLRDGKACT; listed as Homo sapiens) | 50 | 12.5 | 50 | 12.5 | 50 | 12.5 | 50 | 12.5 | 12.5 | 12.5 | 50
10 | PRT464 (DLDECRVRNLCQHACRNTEGSYQCLCPAGYRLLPSGKNCQ; listed as Homo sapiens) | 12.5 | 50 | 12.5 | 50 | 12.5 | 25 | 50 | 25 | 12.5 | 50 | 12.5
11 | PRT465 (ALDPCASGPCLNGGSCSNTQDPQSYHCSCPRAFTGKDCG; listed as Homo sapiens) | 50 | 12.5 | 50 | 12.5 | 50 | 12.5 | 50 | 12.5 | 50 | 12.5 | 50
12 | PRT466 (RHTACLSSPCLNGGTCHLIVATGTTVCACPPGFAGRLCN; listed as Homo sapiens) | 12.5 | 50 | 12.5 | 50 | 12.5 | 50 | 12.5 | 50 | 12.5 | 50 | 12.5
13 | PRT467 (ECPGGCRNGGFCNERRICECPDGFHGPHCE; listed as Homo sapiens) | 12.5 | 12.5 | 12.5 | 25 | 12.5 | 25 | 50 | 25 | 12.5 | 25 | 50
14 | PRT468 (LCTPRCMNGGLCVTPGFCICPPGFYGVNCD; listed as Homo sapiens) | 25 | 12.5 | 25 | 50 | 25 | 12.5 | 50 | 12.5 | 50 | 12.5 | 50
15 | PRT469 (NCSTTCFNGGTCFYPGKCICPPGLEGEQCE; listed as Homo sapiens) | 12.5 | 25 | 12.5 | 25 | 50 | 25 | 12.5 | 50 | 12.5 | 50 | 12.5
16 | PRT470 (KCPQPCRNGGKCIGKSKCKCSKGYQGDLCS; listed as Homo sapiens) | 50 | 12.5 | 50 | 12.5 | 50 | 25 | 12.5 | 25 | 50 | 12.5 | 50
17 | PRT471 (VCEPGCGAHGTCHEPNKCQCQEGWHGRHCN; listed as Homo sapiens) | 100 | 12.5 | 12.5 | 12.5 | 12.5 | 12.5 | 12.5 | 12.5 | 12.5 | 25 | 12.5
